# Measurements: US20190105367A1, “ANTIMICROBIAL 4-OXOQUINOLIZINES” (Emergent Product Development Gaithersburg Inc., priority 2011, published 2019)
# Like-named read-outs stand apart in the source and are kept apart here.
# Tests used:
# [1] = test system: Acinetobacter sp. (H064200250); test: MIC without and with sub-inhibitory polymyxin B (Example 4); format: cell-based
# A. baumannii A387 [2] = test: Preliminary MBC without and with sub-inhibitory polymyxin B (Example 4); format: cell-based, Acinetobacter baumannii; details: for MBC: 2nd experiment
# A. baumannii A472 [3] = test: MIC without and with sub-inhibitory polymyxin B (Example 4); format: cell-based, Acinetobacter baumannii; details: A. baumannii A472; for MIC: 2nd experiment
# A. baumannii NCTC 13301 = test: as above; format: cell-based, Acinetobacter baumannii; details: A. baumannii NCTC 13301, 2nd experiment
# A. baumannii ATCC 19606 = test: as above; format: cell-based, Acinetobacter baumannii
# A. baumannii A14 [4] = test: as above; format: cell-based, Acinetobacter baumannii; details: 1st experiment
# A. baumannii A472 [5] = test: Preliminary MBC without and with sub-inhibitory polymyxin B (Example 4); format: cell-based, Acinetobacter baumannii; details: A. baumannii A472, preliminary MBC; for MBC: 2nd experiment
# A. baumannii A387 [6] = test: MIC without and with sub-inhibitory polymyxin B (Example 4); format: cell-based, Acinetobacter baumannii; details: A. baumannii A387
# A. baumannii A329 = test: as above; format: cell-based, Acinetobacter baumannii; details: A. baumannii A329
# A. baumannii J2 = test: as above; format: cell-based, Acinetobacter baumannii; details: A. baumannii J2
# A. baumannii A14 [7] = test: Preliminary MBC without and with sub-inhibitory polymyxin B (Example 4); format: cell-based, Acinetobacter baumannii; details: A. baumannii A14; +0.06 μg/ml polymyxin B; preliminary MBC; 1st experiment
# [8] = Acinetobacter spp. H064200250 (OXA51), +[…] PB, 2nd experiment
# [9] = +[…] polymyxin B, 1st experiment
# [10] = without polymyxin B, 1st experiment
# [11] = A. baumannii ATCC 19606, +0.06 μg/ml PB, 2nd experiment
substance,measurement,setting,value
"8-[(3S)-3-aminocyclopentyl]-1- cyclopropyl-7-fluoro-9-methyl- 4-oxo-quinolizine-3-carboxylic acid [Compound 10, reference compound]",MIC +[…] PB,[1],1 µg/mL
same,MIC without PB/MIC + PB,[1],2
same,MIC,[1]; [8],1 µg/mL
same,MIC without PB/MIC + PB,[1]; [8],1
same,MIC,"[1]; Acinetobacter spp. H064200250 (OXA51), without PB, 2nd experiment",1 µg/mL
same,MIC without PB,"[1]; Acinetobacter spp. H064200250, without polymyxin B, 1st experiment",2 µg/mL
same,MBC,"A. baumannii A387 [2]; A. baumannii A387, +0.06 μg/ml PB",0.5 µg/mL
same,MBC +0.06 μg/ml PB,"A. baumannii A387 [2]; A. baumannii A387, +0.06 μg/ml polymyxin B, 1st experiment",0.25 µg/mL
same,MBC,"A. baumannii A387 [2]; A. baumannii A387, without PB",0.5 µg/mL
same,MBC without PB,"A. baumannii A387 [2]; A. baumannii A387, without polymyxin B, 1st experiment",0.5 µg/mL
same,MIC,A. baumannii A472 [3]; +[…] PB,0.5 µg/mL
same,MIC +[…] PB,A. baumannii A472 [3]; [9],0.5 µg/mL
same,MIC without PB/MIC + PB,"A. baumannii A472 [3]; ratio, PB […], 1st experiment",2
same,MIC,A. baumannii A472 [3]; without PB,1 µg/mL
same,MIC without PB,A. baumannii A472 [3]; [10],1 µg/mL
same,MIC,A. baumannii NCTC 13301; +[…] PB,0.5 µg/mL
same,MIC without PB/MIC + PB,A. baumannii NCTC 13301; +[…] PB,4
same,MIC,A. baumannii NCTC 13301; without PB,2 µg/mL
same,MIC,A. baumannii ATCC 19606; [11],0.06 µg/mL
same,MIC without PB/MIC + PB,A. baumannii ATCC 19606; [11],2
same,MIC +0.06 μg/ml PB,"A. baumannii ATCC 19606; A. baumannii ATCC 19606, +0.06 μg/ml polymyxin B, 1st experiment",0.03 µg/mL
same,MIC without PB/MIC + PB,"A. baumannii ATCC 19606; A. baumannii ATCC 19606, ratio, PB 0.06 μg/ml, 1st experiment",256
same,MIC,"A. baumannii ATCC 19606; A. baumannii ATCC 19606, without PB, 2nd experiment",0.125 µg/mL
same,MIC,"A. baumannii ATCC 19606; A. baumannii ATCC 19606, without PB, value in parentheses marked *, mark not explained, 2nd experiment",0.06 µg/mL
same,Activity against the A. baumannii ATCC 19606 strain,A. baumannii ATCC 19606; with and without sub-inhibitory concentrations of polymyxin B,potent activities
same,MIC +0.06 μg/ml PB,A. baumannii A14 [4]; +0.06 μg/ml polymyxin B,8.00 µg/mL
same,MIC without PB/MIC + PB,"A. baumannii A14 [4]; ratio, PB 0.06 μg/ml",1
same,MIC without PB,A. baumannii A14 [4]; without polymyxin B,8 µg/mL
same,MBC,A. baumannii A472 [5]; +[…] PB,0.5 µg/mL
same,MBC +[…] PB,A. baumannii A472 [5]; [9],0.25 µg/mL
same,MBC,A. baumannii A472 [5]; without PB,1 µg/mL
same,MBC without PB,A. baumannii A472 [5]; [10],1 µg/mL
same,MIC,"A. baumannii A387 [6]; +0.06 μg/ml PB, 2nd experiment",0.5 µg/mL
same,MIC without PB/MIC + PB,"A. baumannii A387 [6]; +0.06 μg/ml PB, 2nd experiment",1
same,MIC without PB/MIC + PB,"A. baumannii A387 [6]; ratio, PB 0.06 μg/ml, 1st experiment",1
same,MIC,"A. baumannii A387 [6]; without PB, 2nd experiment",0.5 µg/mL
same,MIC without PB,A. baumannii A387 [6]; [10],0.5 µg/mL
same,MIC,"A. baumannii A329; +0.06 μg/ml PB, 2nd experiment",1 µg/mL
same,MIC without PB/MIC + PB,"A. baumannii A329; +0.06 μg/ml PB, 2nd experiment",2
same,MIC read with alamar blue,"A. baumannii A329; +0.06 μg/ml PB, value in parentheses, 2nd experiment",2 µg/mL
same,MIC,"A. baumannii A329; without PB, 2nd experiment",2 µg/mL
same,MIC without PB,A. baumannii A329; [10],8 µg/mL
same,MIC,"A. baumannii J2; +[…] PB, 2nd experiment",0.25 µg/mL
same,MIC without PB/MIC + PB,"A. baumannii J2; +[…] PB, 2nd experiment",8
same,MIC +[…] PB,A. baumannii J2; [9],1 µg/mL
same,MIC without PB/MIC + PB,"A. baumannii J2; ratio, PB […], 1st experiment",2
same,MIC,"A. baumannii J2; without PB, 2nd experiment",2 µg/mL
same,MIC without PB,A. baumannii J2; [10],2 µg/mL
same,MBC +0.06 μg/ml PB,A. baumannii A14 [7],2.00 µg/mL
